Assay results as given in US20200306210A1 (ZOGENIX INTERNATIONAL LIMITED, priority 2017, published 2020).
Several values for one entry are separate records, joined by “and”; a condition that tells them apart may be missing. Equal values may be shown once. Where a name gives a salt, the structure may show the parent alone.

Tests used:
[1] = system: children and young adults with Dravet syndrome; assay: Study 1: Behavior Rating Inventory of Executive Function (BRIEF); assay type: in vivo, Human; settings: for BRIEF Global Executive Composite, change from baseline, mean: raw scores, negative = improvement
From the text: In the BRIEF test, the parent/caregiver and/or the patient (e.g., child or adolescent self-reporting) responds to a series of statements or questions in the form of questionnaires, where an answer of “N”=Never a problem, “S”=Sometimes a problem, and “O”=Often a problem are used to indicate that the behavior being described or assessed has occurred in the past 6 months.
Each questionnaire of the BRIEF parent- and teacher-rating form contains 86 items in eight non-overlapping clinical scales and two validity scales. Based on theoretical and empirical analyses (reviewed in chapter 5 of Gioia, Ibid.), the clinical scales combine to form two indexes: a) Behavioral Regulation (three scales) and b) Metacognition (five scales), as well as a Global Executive Composite (GEC), which is a summary score that takes into account all eight clinical scales of the BRIEF and represents the child's overall executive function. There are also two validity scales to measure Negativity and Inconsistency of responses. Scores on the Negativity scale measures the extent to which the respondent answered selected items in an unusually negative manner whereas scores on the Inconsistency scale indicate the extent to which the respondent answered similar items in an inconsistent manner.
The BRIEF (BRIEF-A or BRIEF-P) were administered at the time of patient randomization (on visit 3, which was one day before (study day “−1”) treatment began (study day 1)); the BRIEF was administered again during visit 8 (study day 43), and at the end of the study (visit 12, study day 99) to assess cognitive function.
(§1) The incidence of treatment-emergent adverse events (TEAEs) was monitored continuously during the study. TEAEs were graded by the investigator as mild, moderate, or severe, and related or not related to study medication. Vital signs, height, weight, and clinical laboratory evaluations were performed at each study visit. The Behavior Rating Inventory of Executive Function (BRIEF) was administered at baseline and periodically during the treatment period to assess for any effects of treatment on cognitive function. Doppler echocardiography (ECHOs) and 12-lead electrocardiography (ECGs) were performed during the screening/baseline period, after 6 weeks of treatment, and after 14 weeks of treatment at the end of the maintenance period. The ECGs and ECHOs were evaluated by two independent cardiologists who were blind to treatment randomization. In the event of disagreement, a third cardiologist arbitrated the decision.

[2] = system: children and young adults with Dravet syndrome; assay: Study 1: safety (TEAEs, body weight, echocardiography); assay type: in vivo, Human
Protocol: as §1
All subjects received ZX008 or matching placebo for up to approximately 16 weeks (Titration Period=2 weeks; Maintenance Period=12 weeks; Taper/Transition Period=2 weeks) in Study 1. After completion of the Maintenance Period, eligible subjects could enroll in an open-label extension (OLE) study, after completion of the transition. […] Follow-up cardiovascular safety assessments, including ECG and ECHO, were performed 3 to 6 months following the last dose of study medication.
In the ZX008 0.2 mg/kg/day group, 5 (12.8%) subjects had weight losses ranging from 8.4% to 21.9% of body weight; the one subject with a 21.9% loss was under the guidance of a nutritionist to manage their weight during the trial, and another subject with a 15.3% loss had been diagnosed with diabetes mellitus shortly before enrolling in the study and was also being managed to lose weight. One subject in the 0.2 mg/kg/day group gained 10.3% body weight during the study. In the ZX008 0.8 mg/kg/day group, 8 (20.0%) subjects lost weight, ranging from 7.2% to 11.4% of baseline body weight. One subject in the ZX008 0.8 mg/kg/day group discontinued citing decreased appetite and weight loss, among other events. The weight loss, however, amounted to less than 1 kg. There were no deaths in the study.

In the case of `CCNC(C)Cc1cccc(C(F)(F)F)c1` (centres unmarked) [ZX008, fenfluramine hydrochloride], the “BRIEF BRI, improvement compared to baseline as compared to placebo” value ([1]; 0.2 mg/kg/day, P<0.05) was “significant improvement”, the “BRIEF Global Executive Composite, change from baseline, mean” value ([1]; 0.2 mg/kg/day) was −4.4 ± 22.3 and the “BRIEF BRI, improvement compared to baseline as compared to placebo” value ([1]; 0.8 mg/kg/day, P<0.05) was “statistically significant improvement”. The “BRIEF GEC, improvement compared to baseline as compared to placebo” value ([1]; 0.8 mg/kg/day, P<0.05) was “statistically significant improvement”, the “BRIEF Global Executive Composite, change from baseline, mean” value ([1]; 0.8 mg/kg/day) was −11.0 ± 29.1 and the “BRIEF-P, difference from placebo” value ([1]; 0.2 and 0.8 mg/kg/day, hydrochloride) was “No changes”. The “Deaths in the study” value [2] was “no deaths”, the Tolerability [2] was “generally well tolerated” and the “At least one echocardiographic finding with trace mitral and/or trace aortic regurgitation, % of subjects” value ([2]; 0.2 mg/kg/day) was 17.9%. For the same compound, the “At least one echocardiographic finding with trace mitral and/or trace aortic regurgitation, number of subjects” value ([2]; 0.2 mg/kg/day) was 7, the “Body weight gained during the study, one subject” value ([2]; 0.2 mg/kg/day) was 10.3% and the “Serious adverse events, % of subjects” value ([2]; 0.2 mg/kg/day) was 10.3%. The “Serious adverse events, number of subjects” value ([2]; 0.2 mg/kg/day) was 4, the “Status epilepticus (serious adverse event), % of subjects” value ([2]; 0.2 mg/kg/day) was 2.6% and the “Status epilepticus (serious adverse event), number of subjects” value ([2]; 0.2 mg/kg/day) was 1. The “Subjects with weight loss (change from baseline ≥7%), number” value ([2]; 0.2 mg/kg/day) was 5, the “TEAEs mild to moderate in severity, % of patients among those with TEAEs” value ([2]; 0.2 mg/kg/day) was 94.6% and the “TEAEs mild to moderate in severity, number of patients among those with TEAEs” value ([2]; 0.2 mg/kg/day) was 35. The “Subjects with weight loss (change from baseline ≥7%), %” value ([2]; 0.2 mg/kg/day, hydrochloride) was 12.8% and 13%, the “At least one echocardiographic finding with trace mitral and/or trace aortic regurgitation, % of subjects” value ([2]; 0.8 mg/kg/day) was 22.5% and the “At least one echocardiographic finding with trace mitral and/or trace aortic regurgitation, number of subjects” value ([2]; 0.8 mg/kg/day) was 9. The “Serious adverse events, % of subjects” value ([2]; 0.8 mg/kg/day) was 12.5%, the “Serious adverse events, number of subjects” value ([2]; 0.8 mg/kg/day) was 5 and the “Status epilepticus (serious adverse event), % of subjects” value ([2]; 0.8 mg/kg/day) was 5%. The “Status epilepticus (serious adverse event), number of subjects” value ([2]; 0.8 mg/kg/day) was 2, the “Subjects with weight loss (change from baseline ≥7%), number” value ([2]; 0.8 mg/kg/day) was 8 and the “TEAEs mild to moderate in severity, % of patients among those with TEAEs” value ([2]; 0.8 mg/kg/day) was 92.1%. The “TEAEs mild to moderate in severity, number of patients among those with TEAEs” value ([2]; 0.8 mg/kg/day) was 35, the “Subjects with weight loss (change from baseline ≥7%), %” value ([2]; 0.8 mg/kg/day, hydrochloride) was 20% and the “Most common non-cardiovascular adverse events” value ([2]; ZX008-treated patients) was “decreased appetite, diarrhea, nasopharyngitis, lethargy, somnolence, and pyrexia”. For the same compound, the “TEAEs reported, % of subjects” value ([2]; each ZX008 dose group (0.2 and 0.8 mg/kg/day)) was 95% and the “Cases of cardiac valvulopathy or pulmonary hypertension” value ([2]; ≤30 mg/day, 14-week treatment and 2-week transition, hydrochloride) was “no cases”.
